The values below come from patent publication US20240109934A1, “ANTIBIOTICS WITH IMPROVED DRUG RESISTANCE PROFILE” (priority 2021, published 2024).

Assay type in all cases: cell-based
The test system of one assay is S. aureus ATCC 29213. Put plainly: MIC by micro-dilution broth method (CLSI). The conditions noted are these: S. aureus ATCC 29213 MIC.
Assay [1] relates to multidrug-resistant clinical isolates of S. aureus. The assay is described as follows: MIC against multidrug-resistant clinical isolates of S. aureus. The conditions noted are these: Staphylococcus aureus.
Assay [2] deals with multidrug-resistant clinical isolates of E. faecium. Put plainly: MIC against multidrug-resistant clinical isolates of E. faecium.

As a reminder, the MIC is the lowest concentration that inhibits growth of the organism.

Values after ≈ are worked out from the molar mass of the structure shown.

On to `CC(=O)O[C@H]1C[C@@]2(C)[C@@H](C[C@@H](O)[C@H]3[C@@]4(C)CC[C@@H](O)[C@@H](C)[C@@H]4CC[C@@]32C)/C1=C(\CCCC(C)C)C(=O)O` [Compound 28, (Z)-2-((3R,4S,5S,8S,9S,10S,11R,13R,14S,16S)-16-acetoxy-3,11-dihydroxy-4,8,10,14-tetramethylhexadecahydro-17H-cyclopenta[a]phenanthren-17-ylidene)-6-methylheptanoic acid], for which, in the assay on S. aureus ATCC 29213, the “Antibacterial activity relative to FA” value is reported as “modest decreases in potency relative to FA”.

On to `C=CCC/C(C(=O)O)=C1/[C@@H](OC(C)=O)C[C@@]2(C)[C@H]1C[C@@H](O)[C@H]1[C@@]3(C)CC[C@@H](O)[C@@H](C)[C@@H]3CC[C@@]12C` [Compound 21], for which, in the assay with S. aureus ATCC 29213, the “Antibacterial activity relative to FA” value is “modest decreases in potency relative to FA”.

For the compound `CC(=O)O[C@H]1C[C@@]2(C)[C@@H](C[C@@H](O)[C@H]3[C@@]4(C)CC[C@@H](O)[C@@H](C)[C@@H]4CC[C@@]32C)/C1=C(\CCC=C(Cl)Cl)C(=O)O` [Compound 15, (Z)-2-((3R,4S,5S,8S,9S,10S,11R,13R,14S,16S)-16-acetoxy-3,11-dihydroxy-4,8,10,14-tetramethylhexadecahydro-17H-cyclopenta[a]phenanthren-17-ylidene)-6,6-dichlorohex-5-enoic acid], the “Antibacterial activity relative to FA” value in the assay with S. aureus ATCC 29213 was “modest decreases in potency relative to FA”.

Consider `CN[C@H](CC(C)C)C(=O)N[C@H]1C(=O)N[C@@H](CC(N)=O)C(=O)N[C@H]2C(=O)N[C@H]3C(=O)N[C@H](C(=O)N[C@H](C(=O)O)c4cc(O)cc(O)c4-c4cc3ccc4O)[C@H](O)c3ccc(c(Cl)c3)Oc3cc2cc(c3O[C@@H]2O[C@H](CO)[C@@H](O)[C@H](O)[C@H]2O[C@H]2C[C@](C)(N)[C@H](O)[C@H](C)O2)Oc2ccc(cc2Cl)[C@H]1O` [Vancomycin, vancomycin], for which the MIC amounted to 4 µg/mL (≈ 2.76 µM) in assay [1] (NRS3, S. aureus NRS3 (NARSA)); 4 µg/mL (≈ 2.76 µM) in assay [1] (NRS4, S. aureus NRS4 (NARSA)); 8 µg/mL (≈ 5.52 µM) in assay [1] (NRS17, S. aureus NRS17 (NARSA)); 4 µg/mL (≈ 2.76 µM) in assay [1] (NRS18, S. aureus NRS18 (NARSA)); 4 µg/mL (≈ 2.76 µM) in assay [1] (NRS21, S. aureus NRS21 (NARSA)); 4 µg/mL (≈ 2.76 µM) in assay [1] (NRS22, S. aureus NRS22 (NARSA)). The MIC in assay [1] (NRS23, S. aureus NRS23 (NARSA)) stood at 4 µg/mL (≈ 2.76 µM); in assay [1] (NRS24, S. aureus NRS24 (NARSA)), 4 µg/mL (≈ 2.76 µM); in assay [1] (NRS26, S. aureus NRS26 (NARSA)) it was 2 µg/mL (≈ 1.38 µM); in assay [1] (NRS27, S. aureus NRS27 (NARSA)), 4 µg/mL (≈ 2.76 µM); in assay [1] (NRS29, S. aureus NRS29 (NARSA)), 2 µg/mL (≈ 1.38 µM); in assay [1] (NRS51, S. aureus NRS51 (NARSA)), 4 µg/mL (≈ 2.76 µM). The MIC came to 4 µg/mL (≈ 2.76 µM) in assay [1] (NRS68, S. aureus NRS68 (NARSA)); 4 µg/mL (≈ 2.76 µM) in assay [1] (NRS73, S. aureus NRS73 (NARSA)); 8 µg/mL (≈ 5.52 µM) in assay [1] (NRS74, S. aureus NRS74 (NARSA)); 4 µg/mL (≈ 2.76 µM) in assay [1] (NRS76, S. aureus NRS76 (NARSA)); 1 µg/mL (≈ 0.69 µM) in assay [1] (NRS77, S. aureus NRS77 (NARSA), no noted resistance); 2 µg/mL (≈ 1.38 µM) in assay [1] (NRS382, S. aureus NRS382 (NARSA)). Moreover, the MIC in assay [1] (NRS383, S. aureus NRS383 (NARSA)) came to 0.5 µg/mL (≈ 0.345 µM); in assay [1] (NRS384, S. aureus NRS384 (NARSA)), 1 µg/mL (≈ 0.69 µM); in assay [1] (S. aureus AR0561 (CDC)), 1 µg/mL (≈ 0.69 µM); in assay [1] (S. aureus AR0562 (CDC)), 2 µg/mL (≈ 1.38 µM); in assay [1] (S. aureus AR0563 (CDC)) it was 1 µg/mL (≈ 0.69 µM); in assay [1] (S. aureus AR0564 (CDC)), 2 µg/mL (≈ 1.38 µM). In addition, the MIC in assay [1] (S. aureus AR0565 (CDC)) amounted to 2 µg/mL (≈ 1.38 µM); in assay [1] (S. aureus AR0566 (CDC)), 0.5 µg/mL (≈ 0.345 µM); in assay [1] (S. aureus AR0567 (CDC)), 1 µg/mL (≈ 0.69 µM); in assay [1] (S. aureus AR0568 (CDC)), 0.5 µg/mL (≈ 0.345 µM); in assay [1] (S. aureus AR0570 (CDC)) it was 1 µg/mL (≈ 0.69 µM); in assay [2] (Enterococcus faecium, E. faecium AR0572 (CDC)), 512 µg/mL (≈ 353 µM). Also, the MIC in assay [2] (Enterococcus faecium, E. faecium AR0574 (CDC)) is 0.5 µg/mL (≈ 0.345 µM); in assay [2] (Enterococcus faecium, E. faecium AR0575 (CDC)), 512 µg/mL (≈ 353 µM); in assay [2] (Enterococcus faecium, E. faecium AR0576 (CDC)), 1 µg/mL (≈ 0.69 µM); in assay [2] (Enterococcus faecium, E. faecium AR0578 (CDC)), 0.5 µg/mL (≈ 0.345 µM); in assay [2] (Enterococcus faecium, E. faecium AR0579 (CDC)), 0.5 µg/mL (≈ 0.345 µM); in assay [2] (VRE with high levels of vancomycin resistance) it was 512 µg/mL (≈ 353 µM).

As to `CC(=O)O[C@H]1C[C@@]2(C)[C@@H](C[C@@H](O)[C@H]3[C@@]4(C)CC[C@@H](O)[C@@H](C)[C@@H]4CC[C@@]32C)/C1=C(\CCC=C(F)F)C(=O)O` [Compound 19, (Z)-2-((3R,4S,5S,8S,9S,10S,11R,13R,14S,16S)-16-acetoxy-3,11-dihydroxy-4,8,10,14-tetramethylhexadecahydro-17H-cyclopenta[a]phenanthren-17-ylidene)-6,6-difluorohex-5-enoic acid], in the assay on S. aureus ATCC 29213, the “Antibacterial activity relative to FA” value is “modest decreases in potency relative to FA”.
